Measured values: ChEMBL document CHEMBL4622995, “Aryl Ether-Derived Sphingosine-1-Phosphate Receptor (S1P1) Modulators: Optimization of the PK, PD, and Safety Profiles” (ACS Med Chem Lett, 2020)

Assays:
[1] = Cardiotoxicity in human iPSC derived cardiomyocytes assessed as reduction in beating rate at 10 nM; assay type: toxicity, cell-based, Cardiac muscle cell
[2] = Cardiotoxicity in human iPSC derived cardiomyocytes assessed as reduction in beating rate at 1 nM; assay type: toxicity, cell-based, Cardiac muscle cell
Rattus norvegicus [3] = assay: Reduction in circulating lymphocytes count in Lewis rat peripheral blood at 0.1 mg/kg, po measured after 24 hrs by hematology analyzer based analysis; assay type: functional
[4] = Elimination half-life in Lewis rat at 2 mg/kg, po; assay type: ADME, organism-based; details: in vivo, read-out: beta t1/2 (converted)
Rattus norvegicus [5] = assay: Reduction in circulating lymphocytes count in Lewis rat peripheral blood at 2 mg/kg, po measured after 24 hrs by hematology analyzer based analysis; assay type: functional
Rattus norvegicus [6] = assay: Reduction in circulating lymphocytes count in Lewis rat peripheral blood at 0.3 mg/kg, po measured after 24 hrs by hematology analyzer based analysis; assay type: functional
Rattus norvegicus [7] = assay: Reduction in circulating lymphocytes count in po dosed Lewis rat peripheral blood measured after 24 hrs by hematology analyzer based analysis; assay type: functional
Sphingosine kinase 2 [8] = target: T1, Sphingosine kinase 2 (Homo sapiens, UniProt Q9NRA0); assay: Drug metabolism in human assessed as SphK2-mediated compound phosphorylation by measuring ratio of phosphorylated compound to parent compound measured after 24 hrs; assay type: ADME
T1 sequence (Q9NRA0 whole entry): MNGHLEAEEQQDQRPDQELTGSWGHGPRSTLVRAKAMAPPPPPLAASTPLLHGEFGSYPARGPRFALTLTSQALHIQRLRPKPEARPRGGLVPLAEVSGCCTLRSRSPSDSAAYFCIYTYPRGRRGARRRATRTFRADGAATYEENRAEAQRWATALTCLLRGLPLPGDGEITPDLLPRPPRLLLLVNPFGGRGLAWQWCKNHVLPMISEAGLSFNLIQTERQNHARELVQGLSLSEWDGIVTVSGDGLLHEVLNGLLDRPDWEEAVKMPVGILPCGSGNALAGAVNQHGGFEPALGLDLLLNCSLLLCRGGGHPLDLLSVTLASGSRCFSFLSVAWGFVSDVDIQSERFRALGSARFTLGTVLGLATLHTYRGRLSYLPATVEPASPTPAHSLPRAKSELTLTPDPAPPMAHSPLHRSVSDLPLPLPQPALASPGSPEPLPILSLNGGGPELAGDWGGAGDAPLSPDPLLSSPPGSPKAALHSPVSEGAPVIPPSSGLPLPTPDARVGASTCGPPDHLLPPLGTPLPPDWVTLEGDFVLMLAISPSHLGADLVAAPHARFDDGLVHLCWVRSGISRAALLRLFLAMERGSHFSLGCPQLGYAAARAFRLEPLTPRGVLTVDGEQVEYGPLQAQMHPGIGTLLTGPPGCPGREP

Sphingosine kinase 2 [9] = target: T2, Sphingosine kinase 2 (Rattus norvegicus, UniProt A6JB73); assay: Drug metabolism in Sprague-Dawley rat assessed as SphK2-mediated compound phosphorylation by measuring ratio of phosphorylated compound to parent compound measured after 24 hrs; assay type: ADME
T2 sequence (A6JB73 whole entry): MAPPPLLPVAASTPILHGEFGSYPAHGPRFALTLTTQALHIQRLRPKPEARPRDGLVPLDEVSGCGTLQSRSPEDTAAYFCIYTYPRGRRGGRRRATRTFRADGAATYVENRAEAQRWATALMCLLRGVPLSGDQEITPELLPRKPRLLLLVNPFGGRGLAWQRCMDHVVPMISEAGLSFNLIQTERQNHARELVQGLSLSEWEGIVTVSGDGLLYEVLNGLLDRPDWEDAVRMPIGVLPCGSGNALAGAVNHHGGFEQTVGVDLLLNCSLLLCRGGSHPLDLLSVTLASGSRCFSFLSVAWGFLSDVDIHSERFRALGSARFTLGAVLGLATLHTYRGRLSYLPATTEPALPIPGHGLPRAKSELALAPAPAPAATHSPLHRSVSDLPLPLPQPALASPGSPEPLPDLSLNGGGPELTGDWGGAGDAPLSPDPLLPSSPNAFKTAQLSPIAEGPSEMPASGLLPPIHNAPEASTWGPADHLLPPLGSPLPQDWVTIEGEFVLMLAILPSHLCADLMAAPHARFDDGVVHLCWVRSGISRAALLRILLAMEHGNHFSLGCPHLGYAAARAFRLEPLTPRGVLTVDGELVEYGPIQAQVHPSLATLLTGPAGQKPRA

[10] = Elimination half-life in po dose Lewis rat; assay type: ADME, organism-based; details: in vivo, read-out: beta t1/2
[11] = Drug metabolism in Cynomolgous monkey assessed as SphK2-mediated compound phosphorylation by measuring ratio of phosphorylated compound to parent compound measured after 24 hrs; assay type: ADME, Macaca fascicularis; details: cynomolgus monkey
Homo sapiens = species on record: Homo sapiens; assay: Reduction in absolute lymphocytes count in human at 1.5 mg/day; assay type: functional
[12] = Pulmonary toxicity in Lewis rat assessed as elevation of BAL protein content at 2 mg/kg, po; assay type: organism-based; details: in vivo
[13] = Elimination half-life in Lewis rat at 0.3 mg/kg, po; assay type: ADME, organism-based; details: in vivo, read-out: beta t1/2 (converted)
Rattus norvegicus [14] = assay: Reduction in circulating lymphocytes count in Lewis rat peripheral blood at 1.5 mg/kg, po measured after 24 hrs by hematology analyzer based analysis; assay type: functional
Rattus norvegicus [15] = assay: Reduction in circulating lymphocytes count in Lewis rat peripheral blood at 1 mg/kg, po measured after 24 hrs by hematology analyzer based analysis; assay type: functional
Rattus norvegicus [16] = assay: Reduction in circulating lymphocytes count in Lewis rat peripheral blood at 0.05 mg/kg, po measured after 24 hrs by hematology analyzer based analysis; assay type: functional
[17] = Pulmonary toxicity in Lewis rat assessed as elevation of BAL protein content at >30XED50, po; details: in vivo

Structure (SMILES): COc1cccc(SC[C@@H]2CCc3cc([C@H]4CC[C@](N)(COP(=O)(O)O)C4)ccc3C2)c1
- inhibition at 0.01 µM [1]: 44%
- inhibition at 0.001 µM [2]: 30%

Structure (SMILES): COc1ccccc1CC[C@H]1CCc2cc([C@H]3CC[C@](N)(CO)C3)ccc2C1
- inhibition in vivo at 0.1 mg/kg (Rattus norvegicus [3]): 17%

Structure (SMILES): COc1ccc(OC[C@@H]2CCc3cc([C@H]4CC[C@](N)(CO)C4)ccc3C2)cc1
- half-life [4]: < 10 h
- inhibition in vivo at 2 mg/kg (Rattus norvegicus [5]): 47%

Structure (SMILES): N[C@]1(CO)CC[C@H](c2ccc3c(c2)CC[C@H](COCc2ccccc2)C3)C1
- inhibition in vivo at 0.3 mg/kg (Rattus norvegicus [6]): 0%

Structure (SMILES): CCCCCC[C@@H]1CCc2cc([C@H]3CC[C@](N)(CO)C3)ccc2C1 [BMS-986104]
- ED50 (Rattus norvegicus [7]): 0.25 mg/kg
- Ratio (Sphingosine kinase 2 [8]): 0.1
- Ratio (Sphingosine kinase 2 [9]): 2.5
- half-life [10]: > 100 h
- Ratio [11]: 0.3

Structure (SMILES): COc1ccccc1CC[C@@H]1CCc2cc([C@H]3CC[C@](N)(COP(=O)(O)O)C3)ccc2C1
- inhibition at 0.01 µM [1]: 27%
- inhibition at 0.001 µM [2]: 11%

Structure (SMILES): N[C@]1(CO)CC[C@H](c2ccc3c(c2)CC[C@@H](COc2ccc(F)cc2)C3)C1
- half-life [4]: 46 h
- inhibition in vivo at 2 mg/kg (Rattus norvegicus [5]): 74%

Structure (SMILES): COc1ccccc1CC[C@@H]1CCc2cc([C@H]3CC[C@](N)(CO)C3)ccc2C1 [UDIFITIMOD]
- half-life [4]: 27 h
- ED50 (Rattus norvegicus [7]): 0.1 mg/kg
- inhibition in vivo at 2 mg/kg (Rattus norvegicus [5]): 81%
- Ratio (Sphingosine kinase 2 [8]): 0.6
- inhibition (INH) (Homo sapiens): >80%
- Ratio (Sphingosine kinase 2 [9]): 5.2
- Ratio [11]: 1
- inhibition in vivo at 0.1 mg/kg (Rattus norvegicus [3]): 53%

Structure (SMILES): COc1ccccc1SC[C@@H]1CCc2cc([C@H]3CC[C@](N)(CO)C3)ccc2C1
- half-life [4]: 24 h
- inhibition in vivo at 2 mg/kg (Rattus norvegicus [5]): 78 to 79%
- Activity [12]: 67%

Structure (SMILES): N[C@]1(COP(=O)(O)O)CC[C@H](c2ccc3c(c2)CC[C@@H](COCc2ccccc2)C3)C1
- inhibition at 0.01 µM [1]: 52%
- inhibition at 0.001 µM [2]: 16%

Structure (SMILES): COc1ccccc1OC[C@@H]1CCc2cc([C@H]3CC[C@](N)(CO)C3)ccc2C1
- half-life [4]: 14 h
- inhibition in vivo at 2 mg/kg (Rattus norvegicus [5]): 85%

Structure (SMILES): COc1cccc(SC[C@@H]2CCc3cc([C@H]4CC[C@](N)(CO)C4)ccc3C2)c1
- half-life [4]: 21 h
- inhibition in vivo at 2 mg/kg (Rattus norvegicus [5]): 81%

Structure (SMILES): COc1cccc(COC[C@@H]2CCc3cc([C@H]4CC[C@](N)(CO)C4)ccc3C2)c1
- inhibition in vivo at 0.3 mg/kg (Rattus norvegicus [6]): 40%

Structure (SMILES): COc1cccc(CO[C@H]2CCc3cc([C@H]4CC[C@](N)(CO)C4)ccc3C2)c1
- inhibition in vivo at 0.3 mg/kg (Rattus norvegicus [6]): 13%

Structure (SMILES): COc1cccc(OC[C@@H]2CCc3cc([C@H]4CC[C@](N)(COP(=O)(O)O)C4)ccc3C2)c1
- inhibition at 0.01 µM [1]: 30%
- inhibition at 0.001 µM [2]: 13%

Structure (SMILES): N[C@]1(CO)CC[C@H](c2ccc3c(c2)CC[C@@H](COCc2ccccc2)C3)C1
- half-life [13]: 11 h
- inhibition in vivo at 0.3 mg/kg (Rattus norvegicus [6]): 49%

Structure (SMILES): COc1cccc(CO[C@@H]2CCc3cc([C@H]4CC[C@](N)(CO)C4)ccc3C2)c1
- inhibition in vivo at 0.3 mg/kg (Rattus norvegicus [6]): 15%

Structure (SMILES): COc1ccccc1OC[C@@H]1CCc2cc([C@H]3CC[C@](N)(COP(=O)(O)O)C3)ccc2C1
- inhibition at 0.01 µM [1]: 43%
- inhibition at 0.001 µM [2]: 20%

Structure (SMILES): COc1cccc(OC[C@H]2CCc3cc([C@H]4CC[C@](N)(CO)C4)ccc3C2)c1
- inhibition in vivo at 0.3 mg/kg (Rattus norvegicus [6]): 70%

Structure (SMILES): Cc1ccc(OC[C@@H]2CCc3cc([C@H]4CC[C@](N)(CO)C4)ccc3C2)cc1
- half-life [4]: 35 h
- inhibition in vivo at 2 mg/kg (Rattus norvegicus [5]): 20%

Structure (SMILES): CCCCCC[C@@H]1CCc2cc([C@H]3CC[C@](N)(COP(=O)(O)O)C3)ccc2C1
- inhibition at 0.01 µM [1]: 32%
- inhibition at 0.001 µM [2]: 1%

Structure (SMILES): COc1ccc(OC[C@@H]2CCc3cc([C@H]4CC[C@](N)(CO)C4)ccc3C2)c(F)c1F
- inhibition in vivo at 2 mg/kg (Rattus norvegicus [5]): 48%

Structure (SMILES): N[C@]1(CO)CC[C@H](c2ccc3c(c2)CC[C@@H](CSc2ccccc2)C3)C1
- half-life [4]: 20 h
- inhibition in vivo at 2 mg/kg (Rattus norvegicus [5]): 73%
- inhibition in vivo at 0.3 mg/kg (Rattus norvegicus [6]): 31%

Structure (SMILES): COc1ccccc1SC[C@@H]1CCc2cc([C@H]3CC[C@](N)(COP(=O)(O)O)C3)ccc2C1
- inhibition at 0.01 µM [1]: 26%
- inhibition at 0.001 µM [2]: 16%

Structure (SMILES): N[C@]1(CO)CC[C@H](c2ccc3c(c2)CC[C@H](CSc2ccccc2)C3)C1
- inhibition in vivo at 0.3 mg/kg (Rattus norvegicus [6]): 29%

Structure (SMILES): COc1ccc(OC[C@@H]2CCc3cc([C@H]4CC[C@](N)(CO)C4)ccc3C2)cc1C(C)(C)C
- inhibition in vivo at 2 mg/kg (Rattus norvegicus [5]): 53%

Structure (SMILES): COc1ccc(COC[C@@H]2CCc3cc([C@H]4CC[C@](N)(CO)C4)ccc3C2)cc1
- inhibition in vivo at 0.3 mg/kg (Rattus norvegicus [6]): 33%

Structure (SMILES): COc1cccc(OC[C@@H]2CCc3cc([C@H]4CC[C@](N)(CO)C4)ccc3C2)c1
- half-life [4]: 24 h
- ED50 (Rattus norvegicus [7]): < 0.05 mg/kg
- inhibition in vivo at 2 mg/kg (Rattus norvegicus [5]): 86%
- inhibition in vivo at 1.5 mg/kg (Rattus norvegicus [14]): 81%
- half-life [13]: 24 h
- Ratio (Sphingosine kinase 2 [9]): 1.5
- Ratio [11]: 1.3
- inhibition in vivo at 1 mg/kg (Rattus norvegicus [15]): 80%
- inhibition in vivo at 0.3 mg/kg (Rattus norvegicus [6]): 80%
- inhibition in vivo at 0.05 mg/kg (Rattus norvegicus [16]): 72%
- Activity [17]: Non-Toxic
